Assay results as given in PubChem BioAssay AID330 (DTP/NCI, 2004).
Inconclusive results and toxic doses are left out. The calls were made as follows: active = survival T/C of 150% or more; inactive = T/C below 125% in these data.

Test system: P388 leukemia ip, CD2F1 mice, survival T/C
Experiment: NCI In Vivo Anticancer Drug Screen. Data for tumor model P388 Leukemia (intraperitoneal) in CD2F1 (CDF1) mice
Conditions: endpoint: median survival time, higher = longer survival
Outline: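 Mice carrying the transplanted tumor received test compound or vehicle. Survival was recorded in each group, and the value is the treated-group measurement divided by that of the vehicle-treated control group.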

[1] = dose: 50.0 mg/kg/injection, schedule: Q01DX009 (ip), vehicle: Klucel (hydroxypropylcellulose) (HPC)
[2] = dose: 100.0 mg/kg/injection, schedule: Q01DX009 (ip), vehicle: Klucel (hydroxypropylcellulose) (HPC)
[3] = dose: 200.0 mg/kg/injection, schedule: Q01DX009 (ip), vehicle: Klucel (hydroxypropylcellulose) (HPC)
[4] = dose: 50.0 mg/kg/injection, schedule: Q01DX009 (ip), vehicle: saline

Measured: T/C

Cc1ccc([C@H]2N[C@@H]2c2ccccn2)cc1
inactive: dose: 60.0 mg/kg/injection, schedule: Q01DX005 (ip), vehicle: saline with Tween-80 98 % of control | dose: 120.0 mg/kg/injection, schedule: Q01DX005 (ip), vehicle: saline with Tween-80 103 % of control

Cc1cc(=O)n(C)c2ccc([N+](=O)[O-])cc12
inactive: [1] 106 % of control | [2] 108 % of control | [3] 108 % of control

Nc1cccc2c1C(=O)c1cccc(N)c1C2=O
inactive: dose: 50.0 mg/kg/injection, schedule: Q01DX005 (ip), vehicle: saline with Tween-80 100 % of control | [1] 97 % of control | dose: 100.0 mg/kg/injection, schedule: Q01DX005 (ip), vehicle: saline with Tween-80 91 % of control | [2] 100 % of control | dose: 200.0 mg/kg/injection, schedule: Q01DX005 (ip), vehicle: saline with Tween-80 100 % of control | [3] 108 % of control | dose: 400.0 mg/kg/injection, schedule: Q01DX009 (ip), vehicle: Klucel (hydroxypropylcellulose) (HPC) 104 % of control

O=c1[nH]c2cc([N+](=O)[O-])ccc2nc1/C=C(\O)c1cccnc1
inactive: dose: 60.0 mg/kg/injection, schedule: Q01DX005 (ip), vehicle: Klucel (hydroxypropylcellulose) (HPC) 94 % of control | dose: 120.0 mg/kg/injection, schedule: Q01DX005 (ip), vehicle: Klucel (hydroxypropylcellulose) (HPC) 88 % of control | dose: 240.0 mg/kg/injection, schedule: Q01DX005 (ip), vehicle: Klucel (hydroxypropylcellulose) (HPC) 94 % of control

O=c1c2cc3ccccc3n2c(=O)c2cc3ccccc3n12
inactive: [1] 87 % of control | [2] 91 % of control | [3] 92 % of control

CCCNCC(O)c1cc(C(F)(F)F)nc2c(C(F)(F)F)cccc12 (stereo not drawn)
inactive: dose: 12.5 mg/kg/injection, schedule: Q01DX009 (ip), vehicle: saline with Tween-80 99 % of control | dose: 25.0 mg/kg/injection, schedule: Q01DX009 (ip), vehicle: saline with Tween-80 95 % of control | dose: 50.0 mg/kg/injection, schedule: Q01DX009 (ip), vehicle: saline with Tween-80 107 % of control

C=CC12CC(=O)N3CCc4ccccc4C3(C1)C2
inactive: dose: 100.0 mg/kg/injection, schedule: Q04DX002 (ip), vehicle: Klucel (hydroxypropylcellulose) (HPC) 110 % of control | dose: 200.0 mg/kg/injection, schedule: Q04DX002 (ip), vehicle: Klucel (hydroxypropylcellulose) (HPC) 100 % of control | dose: 400.0 mg/kg/injection, schedule: Q04DX002 (ip), vehicle: Klucel (hydroxypropylcellulose) (HPC) 97 % of control

O=NN(CC(=O)OCc1ccccc1)OCc1ccccc1
inactive: dose: 12.5 mg/kg/injection, schedule: Q01DX009 (ip), vehicle: other 101 % of control | dose: 25.0 mg/kg/injection, schedule: Q01DX009 (ip), vehicle: other 104 % of control | dose: 50.0 mg/kg/injection, schedule: Q01DX009 (ip), vehicle: other 102 % of control | dose: 100.0 mg/kg/injection, schedule: Q01DX009 (ip), vehicle: other 108 % of control | dose: 200.0 mg/kg/injection, schedule: Q01DX009 (ip), vehicle: other 100 % of control

O=C(NP1(=O)NCc2ccccc2CN1)OC1CCCCC1
inactive: dose: 6.25 mg/kg/injection, schedule: Q01DX005 (ip), vehicle: Klucel (hydroxypropylcellulose) (HPC) 94 % of control | dose: 12.5 mg/kg/injection, schedule: Q01DX005 (ip), vehicle: Klucel (hydroxypropylcellulose) (HPC) 99 % of control | dose: 25.0 mg/kg/injection, schedule: Q01DX005 (ip), vehicle: Klucel (hydroxypropylcellulose) (HPC) 97 % of control

CN(C)CCNC(=O)c1nn(-c2ccccc2)c2c1CSc1ccccc1-2
inactive: dose: 100.0 mg/kg/injection, schedule: Q04DX002 (ip), vehicle: saline with Tween-80 100 % of control | dose: 200.0 mg/kg/injection, schedule: Q04DX002 (ip), vehicle: saline with Tween-80 105 % of control | dose: 400.0 mg/kg/injection, schedule: Q04DX002 (ip), vehicle: saline with Tween-80 103 % of control

CCN(CC)CCCCCCNc1cc(OC)cc2cccnc12
inactive: dose: 12.5 mg/kg/injection, schedule: Q01DX009 (ip), vehicle: saline 86 % of control | dose: 25.0 mg/kg/injection, schedule: Q01DX009 (ip), vehicle: saline 96 % of control | [4] 90 % of control

O=CNNc1cccc(Cl)n1
inactive: dose: 100.0 mg/kg/injection, schedule: Q01DX001 (ip), vehicle: Klucel (hydroxypropylcellulose) (HPC) 97 % of control | dose: 200.0 mg/kg/injection, schedule: Q01DX001 (ip), vehicle: Klucel (hydroxypropylcellulose) (HPC) 97 % of control | dose: 400.0 mg/kg/injection, schedule: Q01DX001 (ip), vehicle: Klucel (hydroxypropylcellulose) (HPC) 98 % of control

O=C(NCc1ccccn1)c1ccccc1
inactive: [4] 103 % of control | dose: 100.0 mg/kg/injection, schedule: Q01DX009 (ip), vehicle: saline 90 % of control | dose: 200.0 mg/kg/injection, schedule: Q01DX009 (ip), vehicle: saline 100 % of control

CC(c1ccccc1)/[N+]([O-])=N\O (stereo not drawn)
inactive: dose: 3.0 mg/kg/injection, schedule: Q01DX005 (ip), vehicle: Klucel + Tween-80 100 % of control | dose: 6.0 mg/kg/injection, schedule: Q01DX005 (ip), vehicle: Klucel + Tween-80 90 % of control | dose: 12.0 mg/kg/injection, schedule: Q01DX005 (ip), vehicle: Klucel + Tween-80 97 % of control | dose: 24.0 mg/kg/injection, schedule: Q01DX005 (ip), vehicle: Klucel + Tween-80 98 % of control
